Measurements from US9394299B2, “Rilyazine derivatives and compositions for the treatment of cancer” (Warner Babcock Institute for Green Chemistry, LLC, priority 2013, dated 2016).

Tests used:
[1] = test system: NCI-H552 (non-small cell lung cancer); experiment: NCI single point 10 μM, NCI-H552; assay type: cell-based, human; settings: 10^−5 M
Method: The screening is a two-stage process, beginning with the evaluation of all compounds against 60 cell lines at a single dose of 10^−5 M.
(§1) The human tumor cell lines of the cancer screening panel are grown in RPMI 1640 medium containing 5% fetal bovine serum and 2 mM L-glutamine. Cells are inoculated into 96 well microtiter plates in 100 μL at plating densities ranging from 5,000 to 40,000 cells/well depending on the doubling time of individual cell lines. After cell inoculation, the microtiter plates are incubated at 37° C., 5% CO2, 95% air and 100% relative humidity for 24 h prior to addition of experimental drugs. […]
(§2) Following drug addition, the plates are incubated for an additional 48 h at 37° C., 5% CO2, 95% air, and 100% relative humidity. […] Bound stain is subsequently solubilized with 10 mM trizma base, and the absorbance is read on an automated plate reader at a wavelength of 515 nm. […]
For the 1-dose 60 cell testing, the Growth Percent is calculated for each cell line/drug combination from the absorbance measurement for the no-drug control (C), the absorbance at time zero (Tz) and the absorbance measurement after incubation of the cells in the presence of drug (Ti): Growth Percent=[(Ti−Tz)/(C−Tz)]×100 for cell line/drug combinations for which Ti≧Tz. […]

[2] = test system: COLO 205 (Colon Cancer); experiment: NCI five point dosing, COLO 205; assay type: cell-based; settings: Homo sapiens, read-out: LC50 (the source's name)
Method: RL-4 was evaluated against the 60 cell panel at five concentration levels, 10^−8 M, 10^−7 M, 10^−6 M, 10^−5 M and 10^−4 M.
as §1, §2
The percentage growth is calculated at each of the five drug concentrations levels using the seven absorbance measurements, namely absorbance at time zero (Tz), absorbance of control after incubation (C), and absorbance of test sample after incubation in the presence of drug at each of the five concentration levels (Ti). The Growth Percent is calculated as it was for the 1 dose assay: Growth Percent=[(Ti−Tz)/(C−Tz)]×100 for cell line/drug combinations for which Ti≧Tz. […]

[3] = test system: MCF-shWISP cells; experiment: MTT cell proliferation assay, MCF-shWISP; assay type: cell-based; settings: 72 h-exposure, 30-0.041 μM
Method: In vitro characterizing of the effects of rilyazine analogs on cell proliferation and apoptosis in the paired epithelial/mesenchymal lines (Colo205/Colo-R, DLD/DLD-SNAIL and MCF7/MCF7-WISP) was performed in an independent laboratory.
The Dose Preparation is based on a reconstitute in DMSO. The Concentration of the stock solution is 100 mM. Storage of the stock solution is under −80° C.
Working drug solution of rilyazine analogs: A stock solution of 100 mM OTX015 in DMSO was prepared and stored at −80° C. For growth inhibition studies, dilution series were prepared by (1) diluting stock solution into DMSO, then (2) diluting 1:300 in culture medium supplemented with 10% FBS giving a final concentration in 0.3% DMSO in the 96-well plates.
Cell lines. Cells lines were maintained in RPMI 1640 (PAA Laboratories, France) supplemented with 10% fetal bovine serum (FBS; PAA Laboratories, France), 2 mM glutamine (PAA Laboratories, France), 100 units/ml penicillin and 100 μg/ml streptomycin (PAA Laboratories, France). Cells were free of Mycoplasma.
Proliferation assays. Cell proliferation was determined using the MTT assay (3-[4,5-dimethylthiazol-2-yl]-2,5-diphenyltetrazolium bromide; Sigma-Aldrich, St. Louis, Mo.). […] After incubation, the supernatant was discarded, the cell pellet was resuspended in 0.1 mL DMSO, and the absorbance was measured at 560 nm using a microplate reader (Thermo, France). […]

S=c1c2ncccc2c(-c2ccccn2)nn1C1CCCCC1 [RL-4, 7-cyclohexyl-5-(pyridin-2-yl)pyrido[2,3-d]pyridazine-8(7H)-thione]
Growth Percent [1]: 91.26% | CC50 [2]: 85.8 µM | anti-proliferative effects (in words) [3]: dose-dependent anti-proliferative effects
